Patent publication US6218384A, “3-Oxo-pyrido(1,2-a)benzimidazole-4-carboxyl and 4-oxo-azepino(1,2-a)benzimidazole-5-carboxyl derivatives useful in treating central nervous system disorders” (Ortho-McNeil Pharmaceutical, Inc., priority 1997, dated 2001)
Read-outs that look alike come from different tables or passages of the source.

Columns and labels:
[1] = Suppression of metrazol-induced convulsions; format: in vivo, male CD1 mice; conditions: Mus musculus, 0.5 h, mice
Experimental: Selected compounds of the invention were tested for their ability to reduce metrazol-induced convulsions in mice (Swinyard, E. A. J. Am. Pharm Assoc. 1949, 38, 201). Male CD1 mice, were fasted at least 16 hours, were divided into equal groups and test compounds or vehicle were administered parenterally. Water was not withheld except during the period of observations. At the time of suspected peak activity, anti-pentylenetetrazol (anti-metrazol) activity was evaluated by the subcutaneous administration of the CD90 dose of metrazol (the dose of metrazol was determined from the dose-response curve producing clonic convulsions in 90% of animals that received the corresponding vehicle for this experiment). Metrazol was dissolved in 0.9% sodium chloride solution, and its dose volume was 10 ml/kg. Animals were housed individually for observation of clonic convulsions, tonic convulsions and death for a period of 30 min. Test compounds that blocked the clonic seizure component of the convulsion in at least 50% of the animals were considered active. The biological assay was considered to be valid if the effects of a known anticonvulsant (positive control) were detected, within the same experiment. Activity was reported as percent reduction of clonic convulsions from the vehicle group. The ED50 values of active compounds were calculated by the method of probits (Finney, D. J. 1971. Probit Analysis. London: Cambridge University Press) and are listed in Tables 1 to 5.

[2] = Suppression of anxiety (punished licking, conflict test) in the adult male rat; format: in vivo, male rats
Experimental: The anxiolytic activity of selected compounds of the invention was assessed by determining their ability to release (disinhibit) behavior that had been suppressed by punishment (Vogel, J. R. et al. Psychopharmacology 1971, 21, 1). Male rats were deprived of water for 48 hours and were deprived of food for 24 hours prior to testing. After the first 24 hours of water deprivation, they were placed in the conflict chamber for a training period; wherein, they were allowed 200 unpunished licks from a bottle containing tap water. The experiment was run the next day. At the expected time of peak activity, the animals were placed in the chamber and allowed access to tap water. […] Their first lick initiates a 3-min test session. Subsequently,every 20th lick was punished by a 0.2-s shock delivered via the stainless-steel drinking-tube. Vehicle-treated control animals generally were willing to accept a median number of 3 to 8 shocks per test session. […] The Wilcoxon rank-sum test (Mann-WhitneyU-test) was used to test for an increase (p<0.05, 1-tailed) in the median number of shocks in drug-treated groups, compared to a concurrently run vehicle-treated group. The biological assay is considered to be valid if the effects of a known anxiolytic (positive control) are detected, within the same experiment. A compound was considered active if there is a significant difference in the median number of shocks tolerated between the drug-treated group and the control group. The MED was defined as the minimum dose of the drug-treatment as analyzed using the Wilcoxon rank-sum test (SAS; Statistical Analysis System, version 5.16). If the MED value is greater than 10, an active dose of the compound being tested had not been determined.

[3] = target: benzodiazepine site of the GABA-A receptor; experiment: Benzodiazepine Receptor Binding Assay (inhibition of 3H-flunitrazepam binding); conditions: ca. 3 nM 3H-flunitrazepam
[4] = Table 1, ip, clonic convulsions after sc CD90 metrazol, >30 = active dose not determined, read-out: Metrazol (ip) ED50
[5] = Table 1, ip, minimum effective dose, >10 = active dose not determined, read-out: Conflict (ip) MED
[6] = Table 1, 25° C., 10-20 min, >10,000 = not active
[7] = Table 2, ip, clonic convulsions, read-out: Antimetrazol (ip) ED50
[8] = Table 2, ip, minimum effective dose, read-out: Conflict (ip) MED
[9] = Table 3, parenteral, clonic convulsions, read-out: Antimetrazol ED50
[10] = Table 3, minimum effective dose, read-out: Conflict MED
[11] = Table 4, parenteral, clonic convulsions, read-out: Antimetrazol ED50
[12] = Table 4, minimum effective dose, read-out: Conflict MED
[13] = Table 5, parenteral, clonic convulsions, read-out: Antimetrazol ED50
[14] = Table 5, minimum effective dose, read-out: Conflict MED

O=C1CCN2C(=C1C(=O)Nc1c(F)cc(F)cc1F)Nc1cc(Cl)ccc12 [compound 104]
ED50 [1, 4]: 1 mg/kg
minimal effective dose [2, 5]: 10 mg/kg
IC50 [3, 6]: 0.013 µM

CC(C)NC(=O)C1=C2Nc3ccccc3N2CCC1=O [compound 105]
ED50 [1, 4]: > 10 mg/kg
minimal effective dose [2, 5]: > 10 mg/kg
IC50 [3, 6]: 0.046 µM

O=C1CCN2C(=C1C(=O)Nc1ccncc1)Nc1cc(F)ccc12 [compound 106]
ED50 [1, 4]: 3 mg/kg
minimal effective dose [2, 5]: 3 mg/kg
IC50 [3, 6]: 0.042 µM

O=C1CCN2C(=C1C(=O)Nc1c(F)cc(F)cc1F)Nc1cc(F)ccc12 [compound 107]
ED50 [1, 4]: 1 mg/kg
minimal effective dose [2, 5]: 0.3 mg/kg
IC50 [3, 6]: 0.003 µM

O=C1CCN2C(=C1C(=O)Nc1ccccc1F)Nc1cc(F)ccc12 [compound 108]
ED50 [1, 4]: < 1 mg/kg
minimal effective dose [2, 5]: 10 mg/kg
IC50 [3, 6]: 0.002 µM

O=C1CCN2C(=C1C(=O)Nc1c(F)cccc1F)Nc1cc(F)ccc12 [compound 109]
ED50 [1, 4]: 0.3 mg/kg
minimal effective dose [2, 5]: 3 mg/kg
IC50 [3, 6]: 0.0013 µM

O=C1CCN2C(=C1C(=O)Nc1ccccc1F)Nc1cc(Cl)ccc12 [compound 113]
ED50 [1, 4]: 1 mg/kg
minimal effective dose [2, 5]: < 10 mg/kg
IC50 [3, 6]: 0.005 µM

O=C1CCN2C(=C1C(=O)Nc1c(F)cccc1F)Nc1cc(Cl)ccc12 [compound 114]
ED50 [1, 4]: 1 mg/kg
minimal effective dose [2, 5]: 3 mg/kg
IC50 [3, 6]: 0.006 µM

CN(C)CCc1ccc(NC(=O)C2=C3Nc4ccccc4N3CCC2=O)cc1 [compound 115]
ED50 [1, 4]: > 30 mg/kg
minimal effective dose [2, 5]: 30 mg/kg
IC50 [3, 6]: 0.11 µM

O=C1CCN2C(=C1C(=S)Nc1ccccc1)Nc1ccccc12 [compound 117]
ED50 [1, 7]: > 10 mg/kg
minimal effective dose [2, 8]: > 10 mg/kg
IC50 ([3]; Table 2): 0.36 µM

O=C1CCN2C(=C1C(=O)Sc1ccccc1)Nc1ccccc12 [compound 119]
ED50 [1, 7]: > 30 mg/kg
minimal effective dose [2, 8]: > 10 mg/kg
IC50 ([3]; Table 2): 0.029 µM

CN1C2=C(C(=O)Nc3ccccc3)C(=O)CCN2c2ccccc21 [compound 120]
ED50 [1, 9]: < 1 mg/kg
minimal effective dose [2, 10]: < 1 mg/kg
IC50 ([3]; Table 3): 0.006 µM

CCN1C2=C(C(=O)Nc3ccccc3)C(=O)CCN2c2ccccc21 [compound 121]
ED50 [1, 9]: < 1 mg/kg
minimal effective dose [2, 10]: < 1 mg/kg
IC50 ([3]; Table 3): < 0.0001 µM

CN1C2=C(C(=O)Nc3ccccc3F)C(=O)CCN2c2ccccc21 [compound 122]
ED50 [1, 9]: 0.03 mg/kg
minimal effective dose [2, 10]: 0.03 mg/kg
IC50 ([3]; Table 3): < 0.001 µM

CCN1C2=C(C(=O)Nc3ccccc3F)C(=O)CCN2c2ccccc21 [compound 123]
ED50 [1, 9]: 0.01 mg/kg
minimal effective dose [2, 10]: 0.3 mg/kg
IC50 ([3]; Table 3): 0.0021 µM

CN(C)c1ccc(NC(=O)C2=C3N(C)c4ccccc4N3CCC2=O)cc1 [compound 124]
ED50 [1, 9]: 1 to 3 mg/kg
minimal effective dose [2, 10]: 10 mg/kg
IC50 ([3]; Table 3): 0.029 µM

CCN1C2=C(C(=O)Nc3ccc(N(C)C)cc3)C(=O)CCN2c2ccccc21 [compound 125]
ED50 [1, 9]: 0.3 mg/kg
minimal effective dose [2, 10]: > 10 mg/kg
IC50 ([3]; Table 3): 0.072 µM

CN1C2=C(C(=O)Nc3ccncc3)C(=O)CCN2c2ccccc21 [compound 126]
ED50 [1, 9]: 3 mg/kg
minimal effective dose [2, 10]: < 10 mg/kg
IC50 ([3]; Table 3): 0.23 µM

O=C1CCN2C(=C1C(=O)Nc1ccccc1)N(Cc1ccccc1)c1ccccc12 [compound 127]
ED50 [1, 9]: 3 mg/kg
minimal effective dose [2, 10]: 10 mg/kg
IC50 ([3]; Table 3): 0.012 µM

O=C1CCN2C(=C1C(=O)Nc1ccccc1F)N(Cc1ccccc1)c1ccccc12 [compound 128]
ED50 [1, 9]: 1 mg/kg
minimal effective dose [2, 10]: > 10 mg/kg
IC50 ([3]; Table 3): 0.088 µM

O=C1CCN2C(=C1C(=O)Nc1ccc(F)cc1F)N(Cc1ccccc1)c1ccccc12 [compound 129]
ED50 [1, 9]: 1 mg/kg
minimal effective dose [2, 10]: > 10 mg/kg
IC50 ([3]; Table 3): 0.012 µM

CCCN1C2=C(C(=O)Nc3ccccc3F)C(=O)CCN2c2ccccc21 [compound 130]
ED50 [1, 9]: 0.1 mg/kg
minimal effective dose [2, 10]: < 0.3 mg/kg
IC50 ([3]; Table 3): < 0.001 µM

CCCN1C2=C(C(=O)Nc3ccc(F)cc3F)C(=O)CCN2c2ccccc21 [compound 131]
ED50 [1, 9]: 0.3 mg/kg
minimal effective dose [2, 10]: < 1 mg/kg
IC50 ([3]; Table 3): 0.0026 µM

CCN1C2=C(C(=O)Nc3ccncc3)C(=O)CCN2c2ccccc21 [compound 133]
ED50 [1, 9]: 3 mg/kg
minimal effective dose [2, 10]: 3 mg/kg
IC50 ([3]; Table 3): 0.08 µM

CC1CN2C(=C(C(=O)Nc3ccccc3)C1=O)N(C)c1ccccc12 (stereo not drawn) [compound 134]
ED50 [1, 9]: 3 mg/kg
minimal effective dose [2, 10]: > 10 mg/kg
IC50 ([3]; Table 3): 0.067 µM

CN1C2=C(C(=O)Nc3c(F)cc(F)cc3F)C(=O)CCN2c2ccccc21 [compound 135]
ED50 [1, 9]: 10 mg/kg
minimal effective dose [2, 10]: > 10 mg/kg
IC50 ([3]; Table 3): 0.013 µM

CCCN1C2=C(C(=O)Nc3ccccc3)C(=O)CCN2c2ccccc21 [compound 136]
ED50 [1, 9]: 1 mg/kg
minimal effective dose [2, 10]: 10 mg/kg
IC50 ([3]; Table 3): 0.0025 µM

CCCN1C2=C(C(=O)Nc3c(F)cc(F)cc3F)C(=O)CCN2c2ccccc21 [compound 137]
ED50 [1, 9]: 1 mg/kg
minimal effective dose [2, 10]: > 10 mg/kg
IC50 ([3]; Table 3): < 0.1 µM

O=C(Nc1ccccc1)c1c(=O)ccn2c1[nH]c1ccccc12 [compound 138]
ED50 [1, 11]: 0.5 mg/kg
minimal effective dose [2, 12]: 1 to 10 mg/kg
IC50 ([3]; Table 4): 0.024 µM

O=C(Nc1ccccc1F)c1c(=O)ccn2c1[nH]c1ccccc12 [compound 139]
ED50 [1, 11]: 0.3 mg/kg
minimal effective dose [2, 12]: 0.1 mg/kg
IC50 ([3]; Table 4): 0.00023 µM

O=C(Nc1ccncc1)c1c(=O)ccn2c1[nH]c1ccccc12 [compound 140]
ED50 [1, 11]: > 10 mg/kg
minimal effective dose [2, 12]: > 10 mg/kg
IC50 ([3]; Table 4): 0.26 µM

O=C(Nc1c(F)cccc1F)c1c(=O)ccn2c1[nH]c1ccccc12 [compound 141]
ED50 [1, 11]: < 0.1 mg/kg
minimal effective dose [2, 12]: 0.3 mg/kg
IC50 ([3]; Table 4): < 0.001 µM

Cn1c2ccccc2n2ccc(=O)c(C(=O)Nc3ccccc3)c12 [compound 142]
ED50 [1, 11]: < 1 mg/kg
minimal effective dose [2, 12]: < 1 mg/kg
IC50 ([3]; Table 4): 0.045 µM

O=C1CCCN2C(=C1C(=O)Nc1ccccc1)Nc1ccccc12 [compound 143]
ED50 [1, 13]: > 10 mg/kg
minimal effective dose [2, 14]: 10 mg/kg
IC50 ([3]; Table 5): 0.104 µM

CN1C2=C(C(=O)Nc3ccccc3)C(=O)CCCN2c2ccccc21 [compound 144]
ED50 [1, 13]: > 10 mg/kg
minimal effective dose [2, 14]: > 10 mg/kg
IC50 ([3]; Table 5): 0.028 µM

O=C1CCCN2C(=C1C(=O)Nc1ccccc1)N(Cc1ccccc1)c1ccccc12 [compound 145]
ED50 [1, 13]: > 10 mg/kg
minimal effective dose [2, 14]: > 10 mg/kg
IC50 ([3]; Table 5): 0.42 µM

O=C1CCCN2C(=C1C(=O)Nc1ccccc1F)Nc1ccccc12 [compound 146]
ED50 [1, 13]: 1 to 10 mg/kg
minimal effective dose [2, 14]: 10 mg/kg
IC50 ([3]; Table 5): 0.0031 µM

CN1C2=C(C(=O)Nc3ccccc3F)C(=O)CCCN2c2ccccc21 [compound 147]
ED50 [1, 13]: > 10 mg/kg
minimal effective dose [2, 14]: > 10 mg/kg
IC50 ([3]; Table 5): 0.022 µM

O=C1CCCN2C(=C1C(=O)Nc1ccccc1F)N(Cc1ccccc1)c1ccccc12 [compound 148]
ED50 [1, 13]: > 10 mg/kg
minimal effective dose [2, 14]: > 10 mg/kg
IC50 ([3]; Table 5): 0.15 µM

CN(C)c1ccc(NC(=O)C2=C3Nc4ccccc4N3CCCC2=O)cc1 [compound 149]
ED50 [1, 13]: > 10 mg/kg
minimal effective dose [2, 14]: > 10 mg/kg
IC50 ([3]; Table 5): 1.12 µM

CN(C)c1ccc(NC(=O)C2=C3N(C)c4ccccc4N3CCCC2=O)cc1 [compound 150]
ED50 [1, 13]: > 10 mg/kg
minimal effective dose [2, 14]: > 10 mg/kg
IC50 ([3]; Table 5): 3.1 µM

CN(C)c1ccc(NC(=O)C2=C3N(CCCC2=O)c2ccccc2N3Cc2ccccc2)cc1 [compound 151]
ED50 [1, 13]: > 10 mg/kg
minimal effective dose [2, 14]: > 10 mg/kg
IC50 ([3]; Table 5): 12.4 µM

O=C1CCCN2C(=C1C(=O)Nc1ccncc1)Nc1ccccc12 [compound 152]
ED50 [1, 13]: > 10 mg/kg
minimal effective dose [2, 14]: < 10 mg/kg
IC50 ([3]; Table 5): 1.46 µM

CN1C2=C(C(=O)Nc3ccncc3)C(=O)CCCN2c2ccccc21 [compound 153]
ED50 [1, 13]: > 10 mg/kg
minimal effective dose [2, 14]: > 10 mg/kg
IC50 ([3]; Table 5): 2.6 µM
